According to PubChem BioAssay AID2644 (Southern Research Specialized Biocontainment Screening …, 2010):
Calls of active or inactive are those of the source.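 Rule for the calls: active = compounds cutting the HIV-1 infection reporter signal by at least 50%; inactive = the rest.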

Test system: MAGI-CCR5 cells, HIV-1 Ba-L, beta-gal luminescence, 48 h
Assay: HIV-1 replication inhibition, CCR5-tropic virus, SAR follow-up, cell-based, HIV-1 Ba-L, beta-gal reporter, 5%/10% serum (AID 2644)
[1] = measured here: antiviral IC50 in 10% serum

Question: With N#C/C(=C\c1ccc(OCc2ccc(Cl)cc2)cc1)C(=O)Nc1cccc(C(=O)O)c1 as the compound, how does the IC50 read?
Answer: The IC50 was > 100 µM (inactive).

Question: What about the IC50 [1] of the same compound?
Answer: The IC50 was > 100 µM.

Question: CC(C)NC(=O)c1sc(=S)n2c1[nH]c(=O)c1ccc(C(=O)NCCc3ccc(Cl)cc3)cc12 was tested. Which IC50 did it give?
Answer: Its IC50 is 35.1 µM.

Question: And the IC50 [1]?
Answer: Its IC50 is 63.4 µM.

Question: What does the source list for Cc1c(Cl)cccc1NS(=O)(=O)c1ccc2c(c1)C1C=CCC1C(c1ccc(C(=O)O)cc1)N2 (configuration not stated)?
Answer: IC50: 16.7 µM; IC50 [1]: 40.6 µM

Question: Which results are given for O=C(O)CCCN1C(=O)/C(=C/c2ccc(-c3nc4ccccc4s3)o2)SC1=S?
Answer: IC50: 80.8 µM; IC50 [1]: 95.4 µM

Question: CSc1nnc(-c2ccccc2N=Cc2c(C)[nH]n(-c3ccc4ccccc4c3)c2=O)c(=O)[nH]1 was tested. Which IC50 did it give?
Answer: Its IC50 is 53.1 µM.

Question: And the IC50 [1]?
Answer: The IC50 was > 100 µM.

Question: Which IC50 does the source give for O=C(N/N=C/c1c(O)n(C2CCCCC2)c(=S)[nH]c1=O)c1ccccc1O here?
Answer: Its IC50 is 46.4 µM.

Question: What about the IC50 [1] of the same compound?
Answer: The IC50 was 45 µM.

Question: Which results are given for O=C(O)c1ccccc1N=Nc1c(O)[nH]c2ccc([N+](=O)[O-])cc12?
Answer: IC50: > 100 µM (inactive); IC50 [1]: > 100 µM

Question: Cc1c2c(=O)n(-c3nc4ccccc4s3)nc-2cc(O)n1Cc1ccccc1 was tested. Which IC50 did it give?
Answer: The IC50 was 12.5 µM.

Question: And the IC50 [1]?
Answer: Its IC50 is 11.1 µM.

Question: With CCOC(=O)C1=C(C)N=c2sc(=Cc3ccc(OCC(=O)O)cc3)c(=O)n2C1c1ccc(OC(C)C)cc1 (configuration not stated) as the compound, how does the IC50 read?
Answer: Its IC50 is 20.9 µM.

Question: What about the IC50 [1] of the same compound?
Answer: Its IC50 is 26 µM.

Question: CC(C)(C)c1cc(-c2csc(Nc3ccccc3)[n+]2Cc2ccc(C(=O)O)cc2)cc(C(C)(C)C)c1O was tested. Which IC50 did it give?
Answer: The IC50 was 7.17 µM.

Question: And the IC50 [1]?
Answer: The IC50 was 12.3 µM.

Question: How did the IC50 turn out when COc1cc(/C=C2\SC(=O)N(c3ccccc3Cl)C2=O)cc([N+](=O)[O-])c1O was run?
Answer: The IC50 was 13.9 µM.

Question: What about the IC50 [1] of the same compound?
Answer: The IC50 was 23.8 µM.

Question: How did the IC50 turn out when CCC(Sc1nc2ccsc2c(=O)n1Cc1ccc(C(=O)O)cc1)C(=O)Nc1ccc(C)c(Cl)c1 (configuration not stated) was run?
Answer: Its IC50 is 14.6 µM.

Question: And the IC50 [1]?
Answer: Its IC50 is 37.8 µM.

Question: For COc1cc(/C=N/NS(=O)(=O)c2ccc3ccccc3c2)ccc1OCc1ccc(C(=O)O)cc1, which IC50 is on record?
Answer: The IC50 was > 100 µM (inactive).

Question: What about the IC50 [1] of the same compound?
Answer: Its IC50 is > 100 µM.

Question: With CCOC(=O)c1sc(N2C(=O)C(O)=C(C(=O)c3ccc(C)o3)C2c2cccc([N+](=O)[O-])c2)nc1C (configuration not stated) as the compound, how does the IC50 read?
Answer: Its IC50 is 20.6 µM.

Question: What about the IC50 [1] of the same compound?
Answer: Its IC50 is 18.5 µM.

Question: Which results are given for CCC(C)(C)C1CCc2c(sc(NC(=O)c3ccccc3C(=O)O)c2C#N)C1 (configuration not stated)?
Answer: IC50: > 100 µM (inactive); IC50 [1]: > 100 µM

Question: Which IC50 does the source give for Oc1c(Cl)cc(Cl)c(Cl)c1Cc1c(O)c(Cl)cc(Cl)c1Cl here?
Answer: The IC50 was 49.3 µM.

Question: And the IC50 [1]?
Answer: Its IC50 is > 100 µM.

Question: Which results are given for COC(=O)c1sc(-c2ccc(C(C)(C)C)cc2)cc1NC(=O)c1ccccc1C(=O)O?
Answer: IC50: 49.9 µM; IC50 [1]: 54.9 µM

Question: CCOc1cc(/C=C2\SC(=O)N(CC(=O)Nc3ccccc3F)C2=O)cc([N+](=O)[O-])c1O was tested. Which IC50 did it give?
Answer: The IC50 was 21 µM.

Question: What about the IC50 [1] of the same compound?
Answer: Its IC50 is 26.3 µM.

Question: For O=C1NC(=S)N(c2ccc(F)cc2)C(=O)/C1=C\c1ccoc1, which IC50 is on record?
Answer: Its IC50 is > 100 µM (inactive).

Question: And the IC50 [1]?
Answer: Its IC50 is > 100 µM.

Question: How did the IC50 turn out when N#C/C(=C\c1ccc(O)c([N+](=O)[O-])c1)c1nc2ccccc2s1 was run?
Answer: The IC50 was 7.96 µM.

Question: What about the IC50 [1] of the same compound?
Answer: The IC50 was 15.1 µM.

Question: O=[N+]([O-])c1cc([N+](=O)[O-])c2oc(-c3ccccc3)c(Br)c2c1O was tested. Which IC50 did it give?
Answer: Its IC50 is 4.46 µM.

Question: What about the IC50 [1] of the same compound?
Answer: The IC50 was 9.38 µM.
